Here are results for 3 compounds from article PMC3679007 (PLoS ONE, 2013).

Where “and” joins values, the source holds several entries; their conditions need not be identical. Identical values can stand only once. Like-named read-outs stand apart in the source and are kept apart here.

Data set [1] concerns the target A/duck/Cambodia/CMB07.72/2007 neuraminidase (Influenza A virus, UniProt E1B5P8). Format: biochemical, HPAI H5N1 avian influenza virus.
Data set [2] deals with clade 1 isolates from Viet Nam and Cambodia (neuraminidase). Conditions: cited from earlier work.
The target in data set [3] is A/chicken/Bangli/BBVD-563/2007 neuraminidase (clade 2.1 wild type) (Influenza A virus, UniProt F1SW80). Format: biochemical, HPAI H5N1 avian influenza virus.
Data set [4] deals with clade 1.1 HPAI H5N1 isolates from Thailand (neuraminidase) (Influenza A virus, UniProt Q5SDA6). It counts as biochemical, HPAI H5N1 avian influenza virus. To be noted: read-out: IC50, Mean (SD).
Data set [5] concerns the target A/chicken/Cambodia/CMB07.71LC1/2007 neuraminidase (Influenza A virus, UniProt E1B5P8). Format: biochemical, HPAI H5N1 avian influenza virus.
The target in data set [6] is A/chicken/Saraburi/10713/2005 neuraminidase (Influenza A virus (A/chicken/Saraburi/10713/2005(H5N1)), UniProt Q2LDC8). Format: biochemical, HPAI H5N1 avian influenza virus.
In data set [7] the target is A/chicken/Cambodia/CMB07.71LC2/2007 neuraminidase (Influenza A virus, UniProt E1B5P8). It counts as biochemical, HPAI H5N1 avian influenza virus.
Data set [8] addresses A/chicken/Suphanburi/2509/2004 neuraminidase (Influenza A virus (H5N1), UniProt Q5SDA6). Format: biochemical, HPAI H5N1 avian influenza virus.
For data set [9], the target named is clade 2.1 HPAI H5N1 isolates from Indonesia (neuraminidase) (Influenza A virus, UniProt F5HQR3). It counts as biochemical, HPAI H5N1 avian influenza virus.
For data set [10] the following is noted: in vivo; cited from earlier work.
The target in data set [11] is A/chicken/Cambodia/CMB07.71LC4/2007 neuraminidase (Influenza A virus (A/chicken/Cambodia/CMB07.71LC4/2007(H5N1)), UniProt E1B5P8). Format: biochemical, HPAI H5N1 avian influenza virus.
The target in data set [12] is A/chicken/Cambodia/CMB07.71LC3/2007 neuraminidase (Influenza A virus (A/chicken/Cambodia/CMB07.71LC3/2007(H5N1)), UniProt E1B5P8). Format: biochemical, HPAI H5N1 avian influenza virus.
The subject of data set [13] is clade 2.1 viruses circulating in Indonesia (neuraminidase). To be noted: cited from earlier work.
The target in data set [14] is A/chicken/Wates/126/2005 neuraminidase (clade 2.1 reference) (Influenza A virus (H5N1), UniProt Q1W1F4). It counts as biochemical, HPAI H5N1 avian influenza virus. Conditions: read-out: IC50, Mean (SD).
Data set [15] has as its system A/chicken/Bangli/BBVD-562/2007, A/chicken/West Java Tangerang/PTB6/2008, A/chicken/West Java/Tja-31/2008, A/chicken/Payakumbuh/BPPVRII-307/2007 neuraminidases. It counts as biochemical.
Data set [16] deals with A/chicken/Vietnam/08/2004 neuraminidase (clade 1.1 wild type) (Influenza A virus (H5N1), UniProt Q6DPL2). It counts as biochemical, HPAI H5N1 avian influenza virus.
[17] abbreviates: read-out: 60 min IC50, Preincubation step (+).
Setting [18] is: read-out: 60 min IC50, Preincubation step (−).

In the case of `CCOC(=O)C1=C[C@@H](OC(CC)CC)[C@H](NC(C)=O)[C@@H](N)C1` [Oseltamivir, oseltamivir], the IC50 in [1] was 0.65 nM; in data set [2] it was 0.5 nM; in [3] (setting [17]), 19.6 nM; in data set [3] (setting [18]), 21.4 nM; in [4], 0.97 nM; in [5] it was 0.77 nM. In addition, the IC50 in data set [6] is 0.68 nM; in data set [7], 0.78 nM; in data set [8], 0.61 nM; in data set [9] (read-out: Extreme High Outliers, IC50 cut-off), more than 63.7 nM; in [9] (read-out: IC50, IQR (25th-75th percentile)) it was 21.2 to 28.2 nM and 20.4 to 26.4 nM; in data set [9] (read-out: IC50, Median) it was 24.9 nM and 24.4 nM. Also, the IC50 in data set [9] (read-out: IC50, range) was 10.6 to 349 nM and 12.6 to 62.4 nM; in [9] (read-out: IC50s of extreme outliers), 63 to 350 nM; in data set [9] (read-out: IC50s of many of the outliers), more than 50 nM; in data set [9] (read-out: Mean and median IC50), approximately 25 nM; in [9] (read-out: Median IC50), 25 nM; in data set [9] (read-out: Mild High Outliers, IC50 cut-off) it was more than 42.4 nM. For the same compound, the IC50 in data set [11] was 0.75 nM; in data set [12], 0.51 nM; in [13], 11 nM and 11.5 nM; in [14], 15.9 nM and 19.8 nM. Besides, the “Binding kinetics (in words)” value is “partial loss of slow binding, and faster dissociation” in data set [3]; “no longer slow binding” in data set [15]. Further, the Levels in plasma in [10] is 400 to 1200 nM. Also, the Levels in saliva result in data set [10] is recorded as “less than 5 % of plasma levels”.
For `CC(=O)N[C@H]1[C@H]([C@H](O)[C@H](O)CO)OC(C(=O)O)=C[C@@H]1N=C(N)N` [Zanamivir, zanamivir], the “Extreme High Outliers, number of viruses” value in data set [9] was 0 (>7.2) and 0 (>5.6). Moreover, the “Binding kinetics (in words)” value in data set [15] was “None of these viruses demonstrated loss of slow binding”.
Consider `CCC(CC)[C@H](NC(C)=O)[C@@H]1[C@H](O)[C@@H](C(=O)O)C[C@H]1N=C(N)N` [Peramivir, peramivir], for which the “Ratio (−)/(+) of 60 min IC50s” value in data set [3] came out at 9; in [16], 8.9. In addition, the IC50 in data set [3] (setting [17]) came out at 0.6 nM; in data set [3] (setting [18]), 5.4 nM; in [16] (setting [17]), 0.7 nM; in data set [16] (setting [18]) it was 6.2 nM. The “Binding kinetics (in words)” value in data set [15] was “None of these viruses demonstrated loss of slow binding”.
